Measurements as given in the NIST ThermoML archive (doi:10.1021/je300280s).
Where “and” joins values, the source holds several entries; their conditions need not be identical. Equal values may be shown once.

Experiments:
[1] = xn = mol fraction of the nth substance listed; settings: 101.3 kPa, Liquid, Vibrating tube method
[2] = excess molar enthalpy (molar enthalpy of mixing); xn = mol fraction of the nth substance listed; settings: 101.3 kPa, Liquid, Flow calorimetry

CC(=O)C(C)=O [2,3-butanedione] + O
Settings | excess molar enthalpy, [2] | mass density, [1]
288.15 K, x1 = 0.002059 | – | 1001.04 kg/m3
288.15 K, x1 = 0.002062 | – | 1001.04 kg/m3
288.15 K, x1 = 0.003086 | – | 1002 kg/m3
288.15 K, x1 = 0.003089 | – | 1002 kg/m3
288.15 K, x1 = 0.004111 | – | 1002.95 kg/m3
288.15 K, x1 = 0.004113 | – | 1002.96 kg/m3
288.15 K, x1 = 0.005132 | – | 1003.91 kg/m3
288.15 K, x1 = 0.005135 | – | 1003.91 kg/m3
288.15 K, x1 = 0.006153 | – | 1004.87 kg/m3
288.15 K, x1 = 0.006157 | – | 1004.87 kg/m3
288.18 K, x1 = 0.00103 | -0.0204 kJ/mol | –
288.18 K, x1 = 0.001032 | -0.0204 kJ/mol | –
288.18 K, x1 = 0.002059 | -0.0408 kJ/mol | –
288.18 K, x1 = 0.002062 | -0.0408 kJ/mol | –
288.18 K, x1 = 0.003086 | -0.061 kJ/mol | –
288.18 K, x1 = 0.003089 | -0.061 kJ/mol | –
288.18 K, x1 = 0.004111 | -0.0809 kJ/mol | –
288.18 K, x1 = 0.004113 | -0.0811 kJ/mol | –
288.18 K, x1 = 0.005132 | -0.101 kJ/mol | –
288.18 K, x1 = 0.005135 | -0.101 kJ/mol | –
288.18 K, x1 = 0.006153 | -0.121 kJ/mol | –
288.18 K, x1 = 0.006157 | -0.121 kJ/mol | –
293.15 K, x1 = 0.001031 | -0.0193 kJ/mol | 999.136 kg/m3
293.15 K, x1 = 0.00206 | -0.0387 kJ/mol | 1000.07 kg/m3
293.15 K, x1 = 0.003088 | -0.0578 kJ/mol | 1001 kg/m3
293.15 K, x1 = 0.004114 | -0.0763 kJ/mol | 1001.9 kg/m3
293.15 K, x1 = 0.005136 | -0.0951 kJ/mol | 1002.82 kg/m3
293.15 K, x1 = 0.006158 | -0.114 kJ/mol | 1003.73 kg/m3
298.15 K, x1 = 0.001032 | -0.0186 kJ/mol and -0.0185 kJ/mol | 997.937 kg/m3 and 997.929 kg/m3
298.15 K, x1 = 0.002061 | -0.0369 kJ/mol | 998.816 kg/m3
298.15 K, x1 = 0.002062 | -0.0369 kJ/mol | 998.823 kg/m3
298.15 K, x1 = 0.003089 | -0.0551 kJ/mol | 999.697 kg/m3 and 999.692 kg/m3
298.15 K, x1 = 0.004113 | -0.0731 kJ/mol | 1000.57 kg/m3
298.15 K, x1 = 0.004114 | -0.073 kJ/mol | 1000.56 kg/m3
298.15 K, x1 = 0.005137 | -0.0912 kJ/mol and -0.0911 kJ/mol | 1001.45 kg/m3 and 1001.43 kg/m3
298.15 K, x1 = 0.00616 | -0.109 kJ/mol | 1002.32 kg/m3 and 1002.3 kg/m3
303.15 K, x1 = 0.001032 | -0.0172 kJ/mol | 996.49 kg/m3
303.15 K, x1 = 0.002061 | -0.0343 kJ/mol | 997.341 kg/m3
303.15 K, x1 = 0.003089 | -0.0513 kJ/mol | 998.182 kg/m3
303.15 K, x1 = 0.004114 | -0.0681 kJ/mol | 999.012 kg/m3
303.15 K, x1 = 0.005137 | -0.0849 kJ/mol | 999.84 kg/m3
303.15 K, x1 = 0.006159 | -0.102 kJ/mol | 1000.66 kg/m3
308.15 K, x1 = 0.001031 | -0.0162 kJ/mol | 994.828 kg/m3 and 994.831 kg/m3
308.15 K, x1 = 0.00206 | -0.0325 kJ/mol and -0.0326 kJ/mol | 995.637 kg/m3
308.15 K, x1 = 0.003086 | -0.0487 kJ/mol | 996.432 kg/m3
308.15 K, x1 = 0.003088 | -0.0489 kJ/mol | 996.443 kg/m3
308.15 K, x1 = 0.004109 | -0.0648 kJ/mol | 997.222 kg/m3
308.15 K, x1 = 0.004114 | -0.065 kJ/mol | 997.237 kg/m3
308.15 K, x1 = 0.005131 | -0.0812 kJ/mol | 998.031 kg/m3
308.15 K, x1 = 0.005137 | -0.081 kJ/mol | 998.026 kg/m3
308.15 K, x1 = 0.006152 | -0.0973 kJ/mol | 998.821 kg/m3
308.15 K, x1 = 0.00616 | -0.097 kJ/mol | 998.816 kg/m3
313.15 K, x1 = 0.001032 | -0.0147 kJ/mol | 992.976 kg/m3
313.15 K, x1 = 0.002062 | -0.0297 kJ/mol | 993.745 kg/m3
313.15 K, x1 = 0.003091 | -0.0447 kJ/mol | 994.499 kg/m3
313.15 K, x1 = 0.004116 | -0.0594 kJ/mol | 995.251 kg/m3
313.15 K, x1 = 0.005139 | -0.0743 kJ/mol | 996.015 kg/m3
313.15 K, x1 = 0.006161 | -0.0891 kJ/mol | 996.763 kg/m3
318.15 K, x1 = 0.001031 | -0.0136 kJ/mol | 990.924 kg/m3
318.15 K, x1 = 0.001032 | -0.0136 kJ/mol | 990.928 kg/m3
318.15 K, x1 = 0.00206 | -0.0276 kJ/mol | 991.645 kg/m3
318.15 K, x1 = 0.002062 | -0.0277 kJ/mol | 991.65 kg/m3
318.15 K, x1 = 0.003088 | -0.0418 kJ/mol | 992.362 kg/m3
318.15 K, x1 = 0.00309 | -0.0417 kJ/mol | 992.361 kg/m3
318.15 K, x1 = 0.004114 | -0.0558 kJ/mol | 993.082 kg/m3
318.15 K, x1 = 0.004116 | -0.0558 kJ/mol | 993.069 kg/m3
318.15 K, x1 = 0.005137 | -0.0698 kJ/mol | 993.801 kg/m3
318.15 K, x1 = 0.00514 | -0.0703 kJ/mol | 993.799 kg/m3
318.15 K, x1 = 0.006159 | -0.0841 kJ/mol | 994.517 kg/m3
318.15 K, x1 = 0.006164 | -0.0846 kJ/mol | 994.503 kg/m3
